# Test results as given in publication PMC6130795 (ACS Omega, 2018).
# Target: T1, CDC25B (Homo sapiens, UniProt P30305)
# T1 sequence (P30305 431-538 limits assumed): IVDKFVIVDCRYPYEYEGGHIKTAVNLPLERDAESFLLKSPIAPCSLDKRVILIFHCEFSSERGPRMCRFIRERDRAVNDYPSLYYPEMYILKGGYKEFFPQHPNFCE
# Test: In vitro CDC25B enzyme inhibition assay
# Assay type: biochemical
smiles,measurement,value
[Na+].[Na+].[Na+].[O]=[V]([O-])([O-])[O-] [Na3VO4],CDC25B IC50,0.13 ± 0.02 µg/mL
